Laboratory results: patent US6897238B2, “Topical aminolevulinic acid-photodynamic therapy for the treatment of acne vulgaris” (General Hospital Corporation, priority 2000, dated 2005)

Assays:
[1] = test system: pilosebaceous units; experiment: ALA-induced PpIX fluorescence in skin (fluorescence microscopy / photography); type: in vivo, human
Experimental: Punch biopsy specimens (4 mm) were taken immediately after PDT, a few weeks after PDT, and at 20 weeks from both the untreated control and ALA-PDT areas. […] Histologic examination was performed. […] To determine the level of PpIX converted from ALA in the pilosebaceous units, punch biopsy specimens were also taken from ALA-treated areas after 3 h occlusion as described above.

[2] = test system: acne vulgaris; experiment: Inflammatory acne score, open-label human study of topical ALA-PDT on the back
[3] = Adverse effects, clinical evaluation and subjective sensation; type: in vivo, human; conditions: for Subjects with burning sensation / Subjects with itching: multiple ALA-PDT
Experimental: Adverse effects were scored by clinical evaluation of erythema, edema, loss of epidermis, hyperpigmentation, hemorrhage, vesiculation, and exfoliation on a visual-analogue scale from 0 to 3 (0=absent, 1=mild, 2=moderate, 3=severe) for each finding. Subjective sensation of pain, burning, and itching was generally maximum about 10 minutes into light exposure, and was ranked at that time and the end of treatment (1 hour), by subjects on a scale from 0 to 3 similar to above.

[4] = test system: sebaceous glands; experiment: Histologic examination and planimetry of punch biopsies; conditions: for Reduction of cytoplasm/nuclear cross-section area ratio in sebocyte relative to non-treatment: 3 weeks
[5] = test system: sebaceous glands; experiment: Sebum excretion rate (SER) by Sebutape; conditions: ALA plus red light
[6] = test system: P. acnes; experiment: Fluorescence photography of follicular bacterial porphyrin (red fluorescent dots); type: in vivo, human
Experimental: (§1) Sites were marked withtemplates to precisely relocate each test area. […] Then, 20% topical ALA in a hydroalcoholic vehicle (Levulan, a gift from DUSA pharmaceutical) was applied for 3h under occlusion with plastic film (Saran wrap), and 150 J/cm^2 broad band light (550-700 nm) was given to the ALA-PDT and light alone areas. […] In both groups, subjects returned one week after treatments for clinical evaluations and at weeks 2, 3, 10 and 20 for clinical, fluorescence, and SER evaluations.
A Nikon E2N digital camera body with a Nikon 105 mm macro lens was used. A filter (Corion LL-550S) was placed on the lens to block light below 550 nm. The excitation light source was composed of two synchronized photoflashes with Norman 400 watt-second lampheads (FT400/FT6), mounted on a stationary tower with angles of incidence of 60 degrees bilaterally. Two 400 nm bandpass filters with 5 nm bandwidth (Corion S40-400S) were placed on the flashes. By this method, the punctate orange-red fluorescence of hair follicles populated with P. acnes was seen. Fluorescence emission has been attributed to bacterial coproporphyrin III and protoporphyrin IX, and intensity of fluorescence is related to the P. acnes population. Fluorescence photography was performed at week, 0, 2, 3, 10 and 20 in all sites. The number of punctate red flourescent dots was counted blindly for each test area.
(§2) Statistical significance was defined as p value of less than 0.05.

[7] = test system: acne vulgaris; experiment: Global clinical-improvement grading by blinded dermatologists from photographs; type: in vivo, human
Experimental: as §1
Clinical improvement was globally assessed by 3 dermatologists unaware of the status of treatment, who blindly graded changes in acne from fixed-magnification clinical photographs, after being shown a small set standardized series of training slides not used in the data evaluation. The grading scale was defined as −3 for >50% exacerbation, −2 for 25^+−50% exacerbation, −1 for 1^+−25% exacerbation, 0 if unchanged, 1 for 1^+−25% improvement, 2 for 25^+−50% improvement, 3 for 50^+−75% improvement, 4 for 75^+−99% improvement, and 5 for 100% improvement, as compared to the baseline.
as §2

[8] = single treatment, ALA plus red light
[9] = multiple-treatment subjects, after 4 treatments
[10] = single-treatment subjects, at 20 weeks
[11] = multiple treatment group, 20 weeks after the last treatment
[12] = twenty weeks after a single ALA-PDT treatment
[13] = multiple treatments, ALA plus red light

NCC(=O)CCC(=O)O [ALA, 5-aminolevulinic acid]
Porphyrin fluorescence of fresh-frozen sections compared with untreated skin ([1]; after ALA application, 3 h occlusion, fluorescence microscopy): bright porphyrin fluorescence in epidermis and pilosebaceous units
PpIX fluorescence, sebocytes versus follicular epithelial cells ([1]; after ALA application, fluorescence microscopy): brighter PpIX fluorescence in sebocytes than in the adjacent follicular epithelial cells
ALA-induced PpIX fluorescence, acne lesions versus surrounding tissue ([1]; fluorescence photography): greater in acne lesions than surrounding tissue
Inflammatory acne score, multiple versus single treatment group, all follow-up visits combined ([2]; ALA alone, P=0.007): better improvement than the single treatment group
Inflammatory acne score, multiple versus single treatment group ([2]; ALA plus red light, first 3 follow-up visits): significantly better improvement than the single ALA-PDT treatment group
Inflammatory acne score, multiple versus single treatment group, all follow-up visits combined ([2]; ALA plus red light, p<0.001): better improvement than the single treatment group
Duration of clinical and statistically significant clearance of inflammatory acne ([2]; after a single treatment): ≥ 10 weeks
Duration of clinical and statistically significant clearance of inflammatory acne ([2]; after multiple ALA-PDT treatments): at least 20 weeks
Inflammatory acne score, change from baseline ([2]; multiple (4 weekly) treatments, ALA plus red light): obvious and statistically significant improvement in acne at all follow-up visits
Inflammatory acne score, change from baseline ([2]; multiple treatments, ALA alone, no light): no improvement
Inflammatory acne score, change from baseline versus the other three sites ([2]; multiple treatments, ALA plus red light, all visits, p<0.05): significantly greater
Inflammatory acne score, ALA alone versus untreated area ([2]; multiple treatments, visit 2 (week 2) only, p=0.046): barely-significant improvement
Inflammatory acne score, change from baseline ([2]; single treatment, 20% topical ALA 3 h occlusion + 150 J/cm^2 red light): improvement in acne, which was statistically significant starting 3 weeks after treatment
Inflammatory acne score, change from baseline ([2]; single treatment, ALA alone, no light, all visits): slightly worse acne not significantly different than baseline
Inflammatory acne score, change from baseline versus the other three areas [2, 8]: the differences were statistically significant at 3, 10, 20 weeks
Patients with acute eruption of inflammatory acneiform lesions ([3]; ALA-PDT sites only, both groups): 100%
Exfoliation after 3 weeks post treatment ([3]; all subjects): None of the subjects had exfoliation
Scarring ([3]; all subjects, both groups): no site in any subject had any scarring
Erythema and edema, time course ([3]; both groups, 1 hour after treatment): substantial decrease in erythema and edema by 1 hour after treatment
Subjects with burning sensation ([3]; treatment 1): 9%
Subjects with itching ([3]; treatment 1): 73%
Subjects with burning sensation ([3]; treatment 2): 67%
Subjects with itching ([3]; treatment 2): 73%
Subjects with burning sensation ([3]; treatment 3): 67%
Subjects with itching ([3]; treatment 3): 55%
Subjects with burning sensation ([3]; treatment 4): 73%
Subjects with itching ([3]; treatment 4): 55%
Subjects still showing some degree of pigmentation ([3]; multiple PDT, 20 weeks after treatment): 55%
Patients who could not continue the weekly treatment scheme and had to postpone their next treatment ([3]; multiple treatment group): Six
Acneiform lesions induced by subsequent treatments ([3]; multiple-treatment group): almost no new acneiform lesions were observed after treatment 4
Duration of transient purpura, average [3, 9]: 1 week
Subjects with superficial but very prominent exfoliation, transient purpura and partial loss of epidermis [3, 9]: 10%
Main subjective discomfort ([3]; single ALA-PDT group): itching was the main discomfort in the single ALA-PDT group, and pain was the least
Subjects in whom erythema faded away completely [3, 10]: 82%
Subjects in whom hyperpigmentation faded away completely [3, 10]: 91%
Reduction of sebaceous gland size compared with untreated control area ([4]; 3 weeks after multiple ALA-PDT): 55%
Reduction of sebaceous gland size compared with untreated control area ([4]; 3 weeks after single ALA-PDT): 30%
Histologic finding in sebaceous gland lobules ([4]; 20 weeks after multiple ALA-PDT treatments): complete destruction or 25 marked atrophy of sebaceous gland lobules
Reduction of sebaceous gland size, mean decrease ([4]; immediately after PDT): 40%
Reduction of cytoplasm/nuclear cross-section area ratio in sebocyte relative to non-treatment ([4]; multiple PDT): 56%
Reduction of sebaceous gland size [4, 11]: 45%
Reduction of sebaceous gland size, range [4, 11]: 15-80%
Reduction of sebocyte cytoplasm/nuclear area [4, 11]: 46%
Reduction of sebocyte cytoplasm/nuclear area, range [4, 11]: 39-53%
Reduction of cytoplasm/nuclear cross-section area ratio in sebocyte relative to non-treatment ([4]; single PDT): 38%
Reduction of sebaceous gland size, mean decrease [4, 12]: 17%
Sebocyte cytoplasm/nuclear area ratio [4, 12]: not reduced
Sebum excretion after PDT (summary) [5]: eliminated for several weeks, and decreased for 20 weeks
SER, multiple versus single treatment group ([5]; difference significant only at 20 weeks, all visits combined p=0.001): suppressed SER more than single ALA-PDT
SER, difference to the other 3 areas ([5]; multiple treatments): statistically significant at all 4 visits
Sebum excretion rate (SER) versus baseline ([5]; multiple treatments): significant decrease in SER, at all follow-up visits
SER versus the other test sites ([5]; single treatment): significantly lower than any other test sites, at each follow-up visit
Sebum excretion rate (SER) versus baseline ([5]; single treatment, weeks 2, 3, 20): significant decrease of SER
Fluorescence related to P. acnes, multiple versus single treatment group ([6]; ALA plus red light, four times versus single): better, but not significant, improvement
Duration of significant decrease of fluorescence of endogenous porphyrins associated with P. acnes ([6]; after both single and multiple ALA-PDT): at least 20 weeks
Fluorescence related to P. acnes versus baseline ([6]; multiple treatments, ALA alone, week 10 and 20): significantly greater fluorescence than baseline
Fluorescence related to P. acnes versus baseline [6, 13]: significant loss of P. acnes, fluorescence, starting at follow-up visit 2
Fluorescence related to P. acnes, difference to the other 3 test sites [6, 13]: statistically significant for all visits
Fluorescence related to P. acnes versus baseline [6, 8]: significant loss of fluorescence related to P. acnes, which lasted for all 4 follow-up visits
Fluorescence related to P. acnes, difference to the other 3 test sites [6, 8]: statistically significant for all visits
Global clinical-improvement score, multiple versus single treatment group ([7]; ALA plus red light, first 2 follow-up visits (week 1 & 2)): significantly better improvement than the single ALA-PDT treatment group
Duration of obvious and significant improvement of acne, blinded clinical assessment ([7]; after 4 treatments): at least 20 weeks
Duration of obvious and significant improvement of acne, blinded clinical assessment ([7]; after a single ALA-PDT treatment): at least 10 weeks
Global clinical-improvement score versus baseline ([7]; multiple treatments, ALA alone, visit 2 and visit 5): improvement reaching statistical significance
Global clinical-improvement score versus baseline [7, 13]: Significant improvement
Global clinical-improvement score versus the other 3 sites [7, 13]: significantly better improvement in the ALA-PDT treated site than the other 3 sites, at all follow-up visits
Global clinical-improvement score versus baseline [7, 8]: significant global improvement starting week 3 and extending through week 20
Global clinical-improvement score, difference to the other three treatment sites [7, 8]: statistically significant at weeks 3 and 10
